Experimental data taken from patent publication US20230212180A1, “SUBSTITUTED PYRAZINE COMPOUND, PHARMACEUTICAL COMPOSITION COMPRISING SAME, AND USE THEREOF” (Sichuan Kelun-Biotech Biopharmaceutical Co., Ltd., priority 2020, published 2023).

How the values were obtained:
[1] = Pharmacokinetic (PK) studies in beagle dog; format: in vivo; settings: for AUC(0-t) / clearance / half-life: dog, male beagle dogs, plasma
Procedure: Test Example 8: Pharmacokinetic (PK) Studies in Beagle Dog
The compound of Example 12, Control Compound 1, Control Compound 2, and TNO-155 were administered to male beagle dogs by intravenous injection (IV) and gavage (PO) respectively to estimate the pharmacokinetic properties. Dosing amounts for IV and PO routes were 0.5 mg/kg and 2.5 mg/kg. The solvent for IV route was 5% DMSO+5% Solutol+90% Saline, and the solvent for PO route was 0.5% MC (sodium methylcellulose). Blood was collected at various time points after IV and PO administration. The blood was anticoagulated using EDTA.K2, and centrifuged to obtain plasma samples. The plasma samples were preserved at −80° C.
The plasma samples were subjected to protein precipitation and then to the LC-MS/MS analysis. WinNonlin 6.3 software was used to calculate the pharmacokinetic parameters by non-compartmental model, and the results were listed in Table 8 below.

GRK4 = target: T1, GRK4 (Homo sapiens, UniProt P32298); test: Kinase selectivity test (ThermoFisher); format: biochemical; parameters: concentration or dose not given beside the values
T1 construct: purchased ThermoFisher USA (contract testing)
Procedure: (§1) Test Example 11: Kinase Selectivity Test
(§2) 1. Experimental Purpose: Tests for selectivity of the compounds of the present disclosure for a plurality of kinases were carried out to assess the safety risk of the compounds of the present disclosure.
(§3) 2. Test institution: ThermoFisher USA
(§4) 3. Testing methods: LanthaScreen binding, Z′-LYTE, Adapta
(§5) 4. Test targets: 100 targets in total

KDR (VEGFR2) = target: T2, KDR (VEGFR2) (Homo sapiens, UniProt P35968); test: Kinase selectivity test (ThermoFisher); format: biochemical; parameters: concentration or dose not given beside the values
T2 construct: purchased ThermoFisher USA (contract testing)
T2 sequence (P35968 20-1356): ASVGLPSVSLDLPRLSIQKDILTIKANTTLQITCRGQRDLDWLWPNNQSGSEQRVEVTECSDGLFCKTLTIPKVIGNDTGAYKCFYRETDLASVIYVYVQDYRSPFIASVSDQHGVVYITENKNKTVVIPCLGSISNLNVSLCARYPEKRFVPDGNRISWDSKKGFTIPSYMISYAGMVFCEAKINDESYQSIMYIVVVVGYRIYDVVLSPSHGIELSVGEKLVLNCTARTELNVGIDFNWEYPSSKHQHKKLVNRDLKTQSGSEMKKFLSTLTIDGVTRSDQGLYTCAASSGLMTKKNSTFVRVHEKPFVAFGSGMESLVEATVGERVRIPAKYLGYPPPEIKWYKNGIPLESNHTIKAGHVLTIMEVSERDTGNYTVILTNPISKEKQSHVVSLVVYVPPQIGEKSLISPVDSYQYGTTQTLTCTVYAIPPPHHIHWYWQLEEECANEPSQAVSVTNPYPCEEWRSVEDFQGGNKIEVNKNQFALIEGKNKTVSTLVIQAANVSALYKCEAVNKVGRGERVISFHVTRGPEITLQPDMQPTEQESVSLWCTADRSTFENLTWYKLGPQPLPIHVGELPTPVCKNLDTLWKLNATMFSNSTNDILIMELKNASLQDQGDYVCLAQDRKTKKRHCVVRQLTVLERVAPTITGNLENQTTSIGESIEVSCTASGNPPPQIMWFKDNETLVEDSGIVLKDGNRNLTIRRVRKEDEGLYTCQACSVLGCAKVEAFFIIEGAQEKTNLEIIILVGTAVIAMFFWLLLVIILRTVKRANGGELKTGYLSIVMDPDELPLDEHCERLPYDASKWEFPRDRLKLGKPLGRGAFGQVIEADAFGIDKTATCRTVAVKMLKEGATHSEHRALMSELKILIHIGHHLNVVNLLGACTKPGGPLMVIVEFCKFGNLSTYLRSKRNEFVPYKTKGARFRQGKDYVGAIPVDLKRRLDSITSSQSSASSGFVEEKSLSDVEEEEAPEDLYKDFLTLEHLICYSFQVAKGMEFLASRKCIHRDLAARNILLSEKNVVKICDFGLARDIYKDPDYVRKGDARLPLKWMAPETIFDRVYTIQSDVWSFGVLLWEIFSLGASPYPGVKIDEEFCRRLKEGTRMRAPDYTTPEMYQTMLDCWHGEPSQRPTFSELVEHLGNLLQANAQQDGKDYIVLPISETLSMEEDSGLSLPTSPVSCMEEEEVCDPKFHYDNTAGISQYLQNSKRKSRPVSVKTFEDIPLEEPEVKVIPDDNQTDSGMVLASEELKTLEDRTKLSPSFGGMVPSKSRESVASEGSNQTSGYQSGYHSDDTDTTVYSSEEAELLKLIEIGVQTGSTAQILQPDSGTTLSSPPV
Procedure: as §1, §2, §3, §4, §5

MAPKAPK2 = target: T3, MAPKAPK2 (Homo sapiens, UniProt P49137); test: Kinase selectivity test (ThermoFisher); format: biochemical; parameters: concentration or dose not given beside the values
T3 construct: purchased ThermoFisher USA (contract testing)
T3 sequence (P49137 whole entry): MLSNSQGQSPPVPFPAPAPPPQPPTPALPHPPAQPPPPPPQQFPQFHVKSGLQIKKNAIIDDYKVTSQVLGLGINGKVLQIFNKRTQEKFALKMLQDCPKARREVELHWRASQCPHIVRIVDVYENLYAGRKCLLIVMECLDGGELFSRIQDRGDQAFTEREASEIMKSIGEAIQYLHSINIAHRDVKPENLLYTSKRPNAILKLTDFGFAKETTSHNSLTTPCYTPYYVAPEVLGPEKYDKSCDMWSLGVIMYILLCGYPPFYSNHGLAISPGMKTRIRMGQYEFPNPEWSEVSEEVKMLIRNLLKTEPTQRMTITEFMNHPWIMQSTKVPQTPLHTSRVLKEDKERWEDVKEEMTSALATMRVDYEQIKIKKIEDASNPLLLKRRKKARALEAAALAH
Procedure: as §1, §2, §3, §4, §5

GSK3A (GSK3 alpha) = target: T4, GSK3A (GSK3 alpha) (Homo sapiens, UniProt P49840); test: Kinase selectivity test (ThermoFisher); format: biochemical; parameters: concentration or dose not given beside the values
T4 construct: purchased ThermoFisher USA (contract testing)
T4 sequence (P49840 whole entry): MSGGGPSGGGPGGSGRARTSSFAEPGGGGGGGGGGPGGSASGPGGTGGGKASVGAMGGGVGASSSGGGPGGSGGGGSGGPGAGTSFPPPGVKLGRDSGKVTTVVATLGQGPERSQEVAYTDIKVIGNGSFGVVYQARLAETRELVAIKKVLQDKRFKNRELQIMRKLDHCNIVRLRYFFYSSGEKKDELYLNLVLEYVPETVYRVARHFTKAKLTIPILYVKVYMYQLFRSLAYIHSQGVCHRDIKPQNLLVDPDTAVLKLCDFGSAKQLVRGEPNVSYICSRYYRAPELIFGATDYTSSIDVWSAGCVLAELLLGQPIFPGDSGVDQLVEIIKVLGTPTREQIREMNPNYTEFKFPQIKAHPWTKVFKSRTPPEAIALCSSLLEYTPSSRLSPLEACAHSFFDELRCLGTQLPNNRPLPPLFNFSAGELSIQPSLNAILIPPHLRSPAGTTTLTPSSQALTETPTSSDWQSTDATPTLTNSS
Procedure: as §1, §2, §3, §4, §5

FLT3 D835Y = target: T5, FLT3 D835Y (Homo sapiens, UniProt P36888, D835Y); test: Kinase selectivity test (ThermoFisher); format: biochemical; parameters: concentration or dose not given beside the values
T5 construct: purchased ThermoFisher USA (contract testing)
T5 sequence (P36888 27-993 D835Y): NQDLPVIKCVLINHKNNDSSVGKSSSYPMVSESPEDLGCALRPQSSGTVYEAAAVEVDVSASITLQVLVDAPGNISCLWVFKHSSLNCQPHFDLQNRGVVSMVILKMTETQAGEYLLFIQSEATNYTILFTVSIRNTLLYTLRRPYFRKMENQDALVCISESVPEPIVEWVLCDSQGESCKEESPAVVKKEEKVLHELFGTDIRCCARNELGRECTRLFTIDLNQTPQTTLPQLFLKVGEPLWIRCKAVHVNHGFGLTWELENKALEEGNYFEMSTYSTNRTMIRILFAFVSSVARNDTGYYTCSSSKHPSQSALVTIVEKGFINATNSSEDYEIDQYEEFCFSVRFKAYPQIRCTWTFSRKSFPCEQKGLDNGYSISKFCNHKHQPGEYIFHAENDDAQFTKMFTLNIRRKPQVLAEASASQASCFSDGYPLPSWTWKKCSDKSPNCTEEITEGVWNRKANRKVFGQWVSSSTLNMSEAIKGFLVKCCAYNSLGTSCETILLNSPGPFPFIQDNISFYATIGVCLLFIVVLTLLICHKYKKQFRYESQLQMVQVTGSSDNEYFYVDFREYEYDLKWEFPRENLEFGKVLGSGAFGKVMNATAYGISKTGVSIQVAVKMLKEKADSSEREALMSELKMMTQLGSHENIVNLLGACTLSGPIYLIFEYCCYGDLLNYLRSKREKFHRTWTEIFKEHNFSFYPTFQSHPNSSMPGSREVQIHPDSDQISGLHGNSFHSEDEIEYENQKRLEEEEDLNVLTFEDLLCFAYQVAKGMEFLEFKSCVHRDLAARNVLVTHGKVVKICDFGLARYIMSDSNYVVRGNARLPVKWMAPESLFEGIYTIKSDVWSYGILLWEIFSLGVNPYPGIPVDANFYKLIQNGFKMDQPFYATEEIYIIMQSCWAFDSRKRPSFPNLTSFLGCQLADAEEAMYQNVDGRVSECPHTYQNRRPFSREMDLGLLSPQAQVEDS
Procedure: as §1, §2, §3, §4, §5

JAK2 = target: T6, JAK2 (Homo sapiens, UniProt O60674); test: Kinase selectivity test (ThermoFisher); format: biochemical; parameters: concentration or dose not given beside the values
T6 construct: purchased ThermoFisher USA (contract testing)
T6 sequence (O60674 whole entry): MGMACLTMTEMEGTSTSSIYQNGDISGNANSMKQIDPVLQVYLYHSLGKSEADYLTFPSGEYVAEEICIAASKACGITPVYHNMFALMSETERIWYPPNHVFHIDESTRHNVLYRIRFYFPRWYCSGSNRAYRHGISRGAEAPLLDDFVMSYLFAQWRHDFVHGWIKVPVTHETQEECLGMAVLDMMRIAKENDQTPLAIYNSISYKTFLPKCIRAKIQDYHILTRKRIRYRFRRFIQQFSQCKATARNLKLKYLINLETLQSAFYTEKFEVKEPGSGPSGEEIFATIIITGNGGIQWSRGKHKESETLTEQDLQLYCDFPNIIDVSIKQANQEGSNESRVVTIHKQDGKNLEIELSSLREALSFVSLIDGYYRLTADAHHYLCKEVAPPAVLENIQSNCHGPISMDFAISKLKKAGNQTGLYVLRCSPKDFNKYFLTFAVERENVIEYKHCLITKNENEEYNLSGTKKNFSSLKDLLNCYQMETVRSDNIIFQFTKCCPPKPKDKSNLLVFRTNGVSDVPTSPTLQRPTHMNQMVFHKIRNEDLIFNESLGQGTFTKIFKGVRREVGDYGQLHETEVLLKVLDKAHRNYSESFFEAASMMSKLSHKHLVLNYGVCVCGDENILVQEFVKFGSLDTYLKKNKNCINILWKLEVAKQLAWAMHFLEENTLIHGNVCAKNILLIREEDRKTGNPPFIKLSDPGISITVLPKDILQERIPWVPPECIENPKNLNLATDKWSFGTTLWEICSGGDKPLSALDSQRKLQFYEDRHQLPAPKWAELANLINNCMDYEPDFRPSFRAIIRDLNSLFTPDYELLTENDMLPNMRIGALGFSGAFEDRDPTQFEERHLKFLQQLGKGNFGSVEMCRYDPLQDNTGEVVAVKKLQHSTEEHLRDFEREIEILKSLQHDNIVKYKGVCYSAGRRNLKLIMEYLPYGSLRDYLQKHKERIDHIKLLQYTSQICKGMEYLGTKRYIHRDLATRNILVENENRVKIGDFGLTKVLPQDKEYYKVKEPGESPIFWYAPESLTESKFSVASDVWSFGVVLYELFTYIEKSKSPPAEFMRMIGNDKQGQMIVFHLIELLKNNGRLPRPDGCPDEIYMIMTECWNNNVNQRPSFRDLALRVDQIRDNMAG
Procedure: as §1, §2, §3, §4, §5

CDK8/ cyclin C = target: T7, CDK8/ cyclin C (Homo sapiens, UniProt P49336); test: Kinase selectivity test (ThermoFisher); format: biochemical; parameters: concentration or dose not given beside the values
T7 construct: purchased ThermoFisher USA (contract testing)
T7 sequence (P49336 whole entry): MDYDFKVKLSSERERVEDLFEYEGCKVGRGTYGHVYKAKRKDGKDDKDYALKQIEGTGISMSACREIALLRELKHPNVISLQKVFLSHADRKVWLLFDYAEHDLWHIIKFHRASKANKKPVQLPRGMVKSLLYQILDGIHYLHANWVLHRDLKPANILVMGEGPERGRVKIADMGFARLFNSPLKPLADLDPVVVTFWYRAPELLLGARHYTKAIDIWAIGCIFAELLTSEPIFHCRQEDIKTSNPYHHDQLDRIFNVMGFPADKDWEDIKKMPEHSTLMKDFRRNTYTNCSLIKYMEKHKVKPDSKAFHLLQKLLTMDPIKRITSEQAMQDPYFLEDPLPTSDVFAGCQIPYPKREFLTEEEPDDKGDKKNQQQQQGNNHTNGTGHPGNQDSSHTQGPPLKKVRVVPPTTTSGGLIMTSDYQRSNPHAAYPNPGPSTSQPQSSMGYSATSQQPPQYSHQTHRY
T7 sequence (P24863 whole entry partner): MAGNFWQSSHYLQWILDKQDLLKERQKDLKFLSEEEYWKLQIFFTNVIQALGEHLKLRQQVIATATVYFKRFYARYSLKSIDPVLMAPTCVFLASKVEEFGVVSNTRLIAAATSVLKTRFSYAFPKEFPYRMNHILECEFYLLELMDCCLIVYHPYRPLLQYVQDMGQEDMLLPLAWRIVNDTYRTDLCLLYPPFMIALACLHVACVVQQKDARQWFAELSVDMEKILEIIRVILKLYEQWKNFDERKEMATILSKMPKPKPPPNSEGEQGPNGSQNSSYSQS
Procedure: as §1, §2, §3, §4, §5

SGK (SGK1) = target: T8, SGK (SGK1) (Homo sapiens, UniProt O00141); test: Kinase selectivity test (ThermoFisher); format: biochemical; parameters: concentration or dose not given beside the values
T8 construct: purchased ThermoFisher USA (contract testing)
T8 sequence (O00141 1-431): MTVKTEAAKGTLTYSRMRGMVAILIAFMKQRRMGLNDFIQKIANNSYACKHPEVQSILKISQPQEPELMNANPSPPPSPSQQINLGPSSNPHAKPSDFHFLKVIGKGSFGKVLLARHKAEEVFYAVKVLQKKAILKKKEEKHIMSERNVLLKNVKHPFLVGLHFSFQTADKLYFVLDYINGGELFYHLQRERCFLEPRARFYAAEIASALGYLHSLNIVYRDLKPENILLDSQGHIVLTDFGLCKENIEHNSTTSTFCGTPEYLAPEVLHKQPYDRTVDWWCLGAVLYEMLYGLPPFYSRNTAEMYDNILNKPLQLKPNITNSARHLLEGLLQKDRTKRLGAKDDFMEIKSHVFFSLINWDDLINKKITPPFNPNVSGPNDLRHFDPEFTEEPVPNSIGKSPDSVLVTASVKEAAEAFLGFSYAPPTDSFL
Procedure: as §1, §2, §3, §4, §5

AAK1 = target: T9, AAK1 (Homo sapiens, UniProt Q2M2I8); test: Kinase selectivity test (ThermoFisher); format: biochemical; parameters: concentration or dose not given beside the values
T9 construct: purchased ThermoFisher USA (contract testing)
T9 sequence (Q2M2I8 whole entry): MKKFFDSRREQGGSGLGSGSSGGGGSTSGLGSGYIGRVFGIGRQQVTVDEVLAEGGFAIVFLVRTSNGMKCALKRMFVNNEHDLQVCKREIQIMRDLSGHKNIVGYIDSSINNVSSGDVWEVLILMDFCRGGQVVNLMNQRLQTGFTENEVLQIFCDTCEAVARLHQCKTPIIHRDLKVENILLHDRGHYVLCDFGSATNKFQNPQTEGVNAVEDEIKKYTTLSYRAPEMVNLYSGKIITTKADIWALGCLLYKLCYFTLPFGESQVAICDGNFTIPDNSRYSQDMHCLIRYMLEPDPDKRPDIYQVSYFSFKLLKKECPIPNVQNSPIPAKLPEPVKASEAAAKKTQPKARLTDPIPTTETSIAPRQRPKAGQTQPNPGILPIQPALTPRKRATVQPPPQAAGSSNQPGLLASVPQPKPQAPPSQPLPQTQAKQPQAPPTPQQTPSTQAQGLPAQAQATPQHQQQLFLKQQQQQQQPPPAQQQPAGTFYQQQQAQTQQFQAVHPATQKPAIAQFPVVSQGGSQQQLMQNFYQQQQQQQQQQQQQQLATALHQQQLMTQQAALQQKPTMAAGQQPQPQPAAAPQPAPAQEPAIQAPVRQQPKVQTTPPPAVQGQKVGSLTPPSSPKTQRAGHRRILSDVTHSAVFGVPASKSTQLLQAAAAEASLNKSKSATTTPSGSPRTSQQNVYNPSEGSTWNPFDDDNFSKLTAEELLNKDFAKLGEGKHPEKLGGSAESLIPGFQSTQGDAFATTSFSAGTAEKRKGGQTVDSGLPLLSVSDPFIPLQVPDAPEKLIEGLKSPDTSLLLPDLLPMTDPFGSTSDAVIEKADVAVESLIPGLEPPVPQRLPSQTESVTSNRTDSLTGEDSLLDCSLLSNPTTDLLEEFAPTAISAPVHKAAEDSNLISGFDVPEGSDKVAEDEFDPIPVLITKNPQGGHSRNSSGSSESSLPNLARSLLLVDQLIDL
Procedure: as §1, §2, §3, §4, §5

Row | SMILES | Inhibition (%) Target 1 (GRK4) [%] | Inhibition (%) Target 2 (GRK4) [%] | Inhibition (%) Mean value (GRK4) [%] | Inhibition (%) Target 1 (KDR (VEGFR2)) [%] | Inhibition (%) Target 2 (KDR (VEGFR2)) [%] | Inhibition (%) Mean value (KDR (VEGFR2)) [%] | Inhibition (%) Target 1 (MAPKAPK2) [%] | Inhibition (%) Target 2 (MAPKAPK2) [%] | Inhibition (%) Mean value (MAPKAPK2) [%] | Inhibition (%) Target 1 (GSK3A (GSK3 alpha)) [%] | Inhibition (%) Target 2 (GSK3A (GSK3 alpha)) [%] | Inhibition (%) Mean value (GSK3A (GSK3 alpha)) [%] | Inhibition (%) Target 1 (FLT3 D835Y) [%] | Inhibition (%) Target 2 (FLT3 D835Y) [%] | Inhibition (%) Mean value (FLT3 D835Y) [%] | Inhibition (%) Target 1 (JAK2) [%] | Inhibition (%) Target 2 (JAK2) [%] | Inhibition (%) Mean value (JAK2) [%] | Inhibition (%) Target 1 (CDK8/ cyclin C) [%] | Inhibition (%) Target 2 (CDK8/ cyclin C) [%] | further results
1 | C[C@@H]1OCC2(CCN(c3ncc(Sc4ccnc(N5CC(C(C)(C)O)C5)c4Cl)nc3CO)CC2)[C@@H]1N [Example 12, 2-(1-(4-(5-((3S,4S)-4-amino-3-methyl-2-oxa-8-azaspiro[4.5]decan-8-yl)-6-(hydroxymethyl)pyrazin-2-ylthio)-3-chloropyridin-2-yl)azetidin-3-yl)propan-2-ol] | 9 | 7 | 8 | 3 | 4 | 3 | 31 | 27 | 29 | 9 | 8 | 8 | 5 | 6 | 6 | −7 | −2 | −4 | 7 | −3 | pharmacokinetic properties (in words) ([1]; beagle dog, 0.5 mg/kg by injection and 2.5 mg/Kg by mouth): excellent pharmacokinetic properties; AUC(0-t) ([1]; in vivo, IV, 0.5 mg/kg): 3090 ng·h/mL; clearance ([1]; in vivo, IV, 0.5 mg/kg): 2.31 mL/min/kg; AUC(0-t) ([1]; in vivo, PO, 2.5 mg/kg): 11000 ng·h/mL; half-life ([1]; in vivo, PO, 2.5 mg/kg): 24.5 h; Inhibition (%) Mean value (CDK8/ cyclin C): 2%; Inhibition (%) Target 1 (SGK (SGK1)): 1%; Inhibition (%) Target 2 (SGK (SGK1)): 2%; Inhibition (%) Mean value (SGK (SGK1)): 1%; Inhibition (%) Target 1 (AAK1): 3%; Inhibition (%) Target 2 (AAK1): 0%; Inhibition (%) Mean value (AAK1): 1%
2 | C[C@@H]1OCC2(CCN(c3cnc(Sc4ccnc(N)c4Cl)c(N)n3)CC2)[C@@H]1N [TNO-155, reference compound] | 96 | 95 | 95 | 73 | 73 | 73 | 106 | 107 | 106 | 92 | 87 | 90 | 71 | 69 | 70 | 61 | 57 | 59 | 89 | 89 | AUC(0-t) ([1]; IV, 0.5 mg/kg): 2350 ng·h/mL; clearance ([1]; IV, 0.5 mg/kg): 3.43 mL/min/kg; AUC(0-t) ([1]; PO, 2.5 mg/kg): 10100 ng·h/mL; half-life ([1]; PO, 2.5 mg/kg): 13.2 h; Inhibition (%) Mean value (CDK8/ cyclin C): 89%; Inhibition (%) Target 1 (SGK (SGK1)): 62%; Inhibition (%) Target 2 (SGK (SGK1)): 57%; Inhibition (%) Mean value (SGK (SGK1)): 60%; Inhibition (%) Target 1 (AAK1): 49%; Inhibition (%) Target 2 (AAK1): 46%; Inhibition (%) Mean value (AAK1): 48%
